The record followed here is US8299048B2, “Hexahydrocyclopentyl[f]indazole sulfonamides and derivatives thereof as selective glucocorticoid receptor modulators” (Merck Sharp & Dohme Corp., priority 2008, dated 2012).

In experiment [1] the target is T1, human GR (Homo sapiens, UniProt P04150).
T1 sequence (P04150 1-777): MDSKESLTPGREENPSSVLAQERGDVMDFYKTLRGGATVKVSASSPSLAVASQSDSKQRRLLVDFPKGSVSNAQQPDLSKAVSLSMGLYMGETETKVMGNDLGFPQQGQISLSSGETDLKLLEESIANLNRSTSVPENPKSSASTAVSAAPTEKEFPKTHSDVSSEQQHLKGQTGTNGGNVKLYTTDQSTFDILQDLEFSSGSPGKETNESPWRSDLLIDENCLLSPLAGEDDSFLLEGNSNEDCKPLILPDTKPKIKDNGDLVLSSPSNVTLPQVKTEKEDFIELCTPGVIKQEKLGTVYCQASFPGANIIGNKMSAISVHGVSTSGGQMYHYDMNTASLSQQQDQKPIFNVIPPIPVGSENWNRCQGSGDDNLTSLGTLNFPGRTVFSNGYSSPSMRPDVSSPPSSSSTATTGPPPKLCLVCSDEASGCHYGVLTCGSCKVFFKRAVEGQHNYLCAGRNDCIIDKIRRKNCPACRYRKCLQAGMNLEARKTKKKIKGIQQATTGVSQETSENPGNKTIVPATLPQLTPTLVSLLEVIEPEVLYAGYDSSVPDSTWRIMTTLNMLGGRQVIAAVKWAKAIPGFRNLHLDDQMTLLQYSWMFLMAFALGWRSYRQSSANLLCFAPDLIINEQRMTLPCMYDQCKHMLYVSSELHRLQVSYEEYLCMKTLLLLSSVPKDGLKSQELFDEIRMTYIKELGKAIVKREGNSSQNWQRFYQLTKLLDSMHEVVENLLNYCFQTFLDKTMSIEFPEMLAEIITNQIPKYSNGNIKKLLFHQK
In words: Trans-Activation Modulation of Glucocorticoid Receptor (GRAMMER), MMTV-LUC reporter, agonist mode. Type of experiment: cell-based. More on the design: endogenous in cells. As to conditions: for Emax: A549, A549 cells, maximum activity, read-out: Transactivation A549 Cells GRAMMER Emax; for EC50: A549 cells, inflection point, read-out: Transactivation A549 Cells GRAMMER IP. The method in brief: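 Readout is luciferase from a modified MMTV LTR promoter after 24 h compound exposure alongside 10 nM dexamethasone (100% activity reference), DMSO ≤1%.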

Experiment [2] has as its target T1, human GR. In words: Transrepression Assay (GITAR), TNFα-β-lactamase reporter in U937 cells. In kind it is cell-based. More on the design: U937 cells contain an endogenous glucocorticoid receptor (GR); endogenous in cells; host or cells: U937 cells stably transfected with the TNF-alpha promoter/beta-lactamase reporter. As to conditions: for GITAR > GRAMM % SEP: GITAR Emax minus GRAMMER Emax; for EC50: U937 cells, inflection point, read-out: Transrepression U937 Cells GITAR IP. The method in brief:
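U937 cells stably carrying a TNF-α promoter–β-lactamase reporter, with endogenous GR, are preincubated with compound 30–45 min at 37 °C, then stimulated with PMA (5 ng/ml final) and LPS (100 ng/ml final) overnight (~18 hr). β-Lactamase is read with CCF2-AM substrate; repression by 100 nM dexamethasone defines 100%.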

Setting [3] is: U-937, U937 cells, maximum activity, read-out: Transrepression U937 Cells GITAR Emax.
The mark [4] stands for this setting: U-937, activity repressed by 100 nM dexamethasone alone set as 100%, read-out: maximal activity in the transrepression (GITAR) assay.

For the compound `C[C@]12Cc3cnn(-c4ccc(F)cc4)c3C=C1CC[C@@H]2CN(CC1CC1)S(=O)(=O)/C=C/c1ccccc1` [Example 13, (E)-N-(cyclopropylmethyl)-N-{[(4αR,5S)-1-(4-fluorophenyl)-4α-methyl-1,4,4α,5,6,7-hexahydrocyclopenta[f]indazol-5-yl]methyl}-2-phenylethylenesulfonamide], the Emax at human GR [1] was 8.3%; at human GR [2] (setting [3]), 16.1%; at human GR [2] (setting [4]) it was above 5%. The EC50 on human GR [1] turned out to be 82.9 nM; at human GR [2], 305 nM. Moreover, the “GITAR > GRAMM % SEP” value on human GR [2] was found to be 7.8%.
In the case of `CNC(=O)Nc1ccc(S(=O)(=O)N(CC2CC2)C[C@H]2CCC3=Cc4c(cnn4-c4ccc(F)cc4)C[C@@]32C)c(Cl)c1` [Example 14, 2-chloro-N-(cyclopropylmethyl)-N-{[(4αR,5S)-1-(4-fluorophenyl)-4α-methyl-1,4,4α,5,6,7-hexahydrocyclopenta[f]indazol-5-yl]methyl}-4-{[(methylamino)carbonyl]amino}-benzenesulfonamide], the Emax at human GR [1] is 25.2%; at human GR [2] (setting [3]), 59.3%; at human GR [2] (setting [4]) it was above 5%. Further, the EC50 was determined as 344 nM on human GR [1] and 553 nM at human GR [2]. The “GITAR > GRAMM % SEP” value at human GR [2] is given as 34.1%.
As for `C[C@]12Cc3cnn(-c4ccc(F)cc4)c3C=C1CC[C@@H]2CN(CC1CC1)S(=O)(=O)c1ccc(F)c(Cl)c1` [Example 15, 3-chloro-N-(cyclopropylmethyl)-4-fluoro-N-{[(4αR,5S)-1-(4-fluorophenyl)-4α-methyl-1,4,4α,5,6,7-hexahydrocyclopenta[f]indazol-5-yl]methyl}benzenesulfonamide], the values for the Emax at human GR [1], on human GR [2] (setting [3]) and on human GR [2] (setting [4]) were 27.6%, 59% and above 5%, respectively. The values for the EC50 at human GR [1] and at human GR [2] were 292 nM and 258 nM, respectively. Moreover, on human GR [2], the “GITAR > GRAMM % SEP” value is 31.4%.
Take `C[C@]12Cc3cnn(-c4ccc(F)cc4)c3C=C1CC[C@@H]2CN(CCC#N)S(=O)(=O)c1ccccc1F` [Example 16, N-(2-cyanoethyl)-2-fluoro-N-{[(4αR,5S)-1-(4-fluorophenyl)-4α-methyl-1,4,4α,5,6,7-hexahydrocyclopenta[f]indazol-5-yl]methyl}benzenesulfonamide]: the Emax on human GR [1] is 53%; at human GR [2] (setting [3]) it was 84.5%; at human GR [2] (setting [4]), above 5%. The EC50 on human GR [1] is 254 nM; at human GR [2], 268 nM.
For the compound `C[C@]12Cc3cnn(-c4ccc(F)cc4)c3C=C1CC[C@@H]2CN(CCO)S(=O)(=O)c1ccccc1F` [Example 17, 2-fluoro-N-{[(4αR,5S)-1-(4-fluorophenyl)-4α-methyl-1,4,4α,5,6,7-hexahydrocyclopenta[f]indazol-5-yl]methyl}-N-(2-hydroxyethyl)benzenesulfonamide], the Emax was 37.3% at human GR [1], 82.1% at human GR [2] (setting [3]) and above 5% at human GR [2] (setting [4]). The figures for the EC50 on human GR [1] and on human GR [2] were 220 nM and 347 nM, respectively.
For the compound `COC(=O)c1ccccc1S(=O)(=O)N(CC1CC1)C[C@H]1CCC2=Cc3c(cnn3-c3ccc(F)cc3)C[C@@]21C` [Example 18, methyl 2-[((cyclopropylmethyl){[(4αR,5S)-1-(4-fluorophenyl)-4α-methyl-1,4,4α,5,6,7-hexahydrocyclopenta[f]indazol-5 yl]methyl}amino)sulfonyl]benzoate], the Emax at human GR [1] was 20%; on human GR [2] (setting [3]), 35.3%; on human GR [2] (setting [4]), above 5%. For the same compound, the EC50 at human GR [1] amounted to 394 nM; at human GR [2], 415 nM. On human GR [2], the “GITAR > GRAMM % SEP” value is 15.3%.
As for `C[C@]12Cc3cnn(-c4ccc(F)cc4)c3C=C1CC[C@@H]2CN(CCO)S(=O)(=O)c1ccc(F)c(Cl)c1` [Example 19, 3-chloro-4-fluoro-N-{[(4αR,5S)-1-(4-fluorophenyl)-4α-methyl-1,4,4α,5,6,7-hexahydrocyclopenta[f]indazol-5-yl]methyl}-N-(2-hydroxyethyl)benzenesulfonamide], the Emax is 20.6% at human GR [1], 69.8% at human GR [2] (setting [3]) and above 5% on human GR [2] (setting [4]). Moreover, the results for the EC50 on human GR [1] and on human GR [2] were 1190 nM and 1720 nM, respectively. Besides, the “GITAR > GRAMM % SEP” value at human GR [2] turned out to be 49.1%.
Take `C[C@]12Cc3cnn(-c4ccc(F)cc4)c3C=C1CC[C@@H]2CN(CC#N)S(=O)(=O)c1ccc(F)c(Cl)c1` [Example 20, 3-chloro-N-(cyanomethyl)-4-fluoro-N-{[(4αR,5S)-1-(4-fluorophenyl)-4α-methyl-1,4,4α,5,6,7-hexahydrocyclopenta[f]indazol-5-yl]methyl}benzenesulfonamide]: the Emax on human GR [1] is 68.1%; at human GR [2] (setting [3]), 69.7%; on human GR [2] (setting [4]) it was above 5%. The EC50 was found to be 910 nM on human GR [1] and 373 nM at human GR [2]. Moreover, the “GITAR > GRAMM % SEP” value on human GR [2] is 1.6%.
In the case of `C[C@]12Cc3cnn(-c4ccc(F)cc4)c3C=C1CC[C@@H]2CN(CC1CC1)S(=O)(=O)Cc1ccccc1` [Example 21, N-(cyclopropylmethyl)-N-{[(4αR,5S)-1-(4-fluorophenyl)-4α-methyl-1,4,4α,5,6,7-hexahydrocyclopenta[f]indazol-5-yl]methyl}-1-phenylmethanesulfonamide], the Emax was 33.5% at human GR [1], 58.7% at human GR [2] (setting [3]) and above 5% at human GR [2] (setting [4]). Further, the EC50 is 519 nM at human GR [1] and 365 nM at human GR [2].
On to `Cc1oncc1S(=O)(=O)N(CC#N)C[C@H]1CCC2=Cc3c(cnn3-c3ccc(F)cc3)C[C@@]21C` [Example 23, N-(cyanomethyl)-N-{[(4αR,5S)-1-(4-fluorophenyl)-4α-methyl-1,4,4α,5,6,7-hexahydrocyclopenta[f]indazol-5-yl]methyl}-5-methylisoxazole-4-sulfonamide], for which the Emax at human GR [1] is 2.7%; at human GR [2] (setting [3]), 34%; on human GR [2] (setting [4]), above 5%. Further, the EC50 stood at 8790 nM at human GR [1] and 2250 nM at human GR [2]. The “GITAR > GRAMM % SEP” value at human GR [2] turned out to be 31.3%.
For the compound `C[C@]12Cc3cnn(-c4ccc(F)cc4)c3C=C1CC[C@@H]2CN(CC#N)S(=O)(=O)c1cc(Cl)c(Cl)s1` [Example 24, 4,5-dichloro-N-(cyanomethyl)-N-{[(4αR,5S)-1-(4-fluorophenyl)-4α-methyl-1,4,4α,5,6,7-hexahydrocyclopenta[f]indazol-5-yl]methyl}thiophene-2-sulfonamide], the Emax is 10.5% at human GR [1], 37.7% on human GR [2] (setting [3]) and above 5% at human GR [2] (setting [4]). Further, the EC50 on human GR [1] was found to be 845 nM; on human GR [2] it was 565 nM. Besides, the “GITAR > GRAMM % SEP” value on human GR [2] amounted to 27.2%.
Consider `C[C@]12Cc3cnn(-c4ccc(F)cc4)c3C=C1CC[C@@H]2CN(CC#N)S(=O)(=O)c1ccc(F)c(F)c1` [Example 25, N-(cyanomethyl)-3,4-difluoro-N-{[(4αR,5S)-1-(4-fluorophenyl)-4α-methyl-1,4,4α,5,6,7-hexahydrocyclopenta[f]indazol-5-yl]methyl}benzenesulfonamide], for which the Emax at human GR [1] was 76.4%; at human GR [2] (setting [3]), 89.4%; at human GR [2] (setting [4]), above 5%. Moreover, the figures for the EC50 at human GR [1] and on human GR [2] were 453 nM and 222 nM, respectively. Also, the “GITAR > GRAMM % SEP” value on human GR [2] was 13.0%.
Consider `C[C@]12Cc3cnn(-c4ccc(F)cc4)c3C=C1CC[C@@H]2CN(CC#N)S(=O)(=O)c1cccc(Cl)c1Cl` [Example 26, 2,3-dichloro-N-(cyanomethyl)-N-{[(4αR,5S)-1-(4-fluorophenyl)-4α-methyl-1,4,4α,5,6,7-hexahydrocyclopenta[f]indazol-5-yl]methyl}benzenesulfonamide], for which the Emax at human GR [1] is 5.8%; on human GR [2] (setting [3]) it was 16%; on human GR [2] (setting [4]), above 5%. The EC50 at human GR [1] came to 939 nM; on human GR [2], 25 nM. In addition, the “GITAR > GRAMM % SEP” value at human GR [2] was 10.2%.
